Source: patent US20160029629A1, “LAWN GROWTH-PROMOTING AGENT AND METHOD OF USING SAME” (BAYER CROPSCIENCE AKTIENGESELLSCHAFT, priority 2013, published 2016)

Assays:
Agrostis stolonifera = experiment: Biologic Example 2: seeded lawn test, length of above-ground and root portions after soil treatment; type: in vivo
Experimental: Test crop: Agrostis stolonifera Test method: Plastic cups (diameter 20 cm, depth 5 cm) were filled with a soil mixture (1:1 mixture of sand and mulch), the soil was treated (2,000 L/ha water) with penflufen prepared to a predetermined concentration (Cerenturf Forte) on the day A. stolonifera was planted and at 0.5 leaf cycles, after which germination state was examined. In order to ensure evenness of irrigation, an atomizer was used for a fixed number of pushes, and water amount was monitored so as to be uniform. A basal application was not used. Examination method: Cuttings were taken at random from the test area, and the lengths of the above-ground and root portions were measured.

Zoysia Matrella = experiment: Biological Example 1: sod growth test, weight of roots, runners and erect stems after spray treatment; type: in vivo; conditions: for Roots weight: 334 ppm spray, 2,000 L/ha; for Roots weight / Erect stem weight / Erect stems/runners / Roots weight vs. untreated / Roots/(roots + runners + erect stems) / Roots/runners / Runner weight: 170 days later; for Erect stem weight / Erect stems/runners / Roots weight vs. untreated / Roots/(roots + runners + erect stems) / Roots/runners / Runner weight: 334 ppm spray
Excerpt: Test crop: Zoysia Matrella
Test method: Z. Matrella sod was laid in a roughly 15 cm checked pattern, and, approximately one month later, penflufen prepared to a predetermined concentration (Cerenturf Forte; aqueous suspension of 22.7 wt % penflufen and 77.3% surfactant and water, prepared according to a normal method) was sprayed thereon (2,000 L/ha). 170 days later, a hole cutter was used to cut out sod sections and interstitial sections, the sections were separated into roots, runners, and erect stems, and the weight of each was measured.

[1] = system: brown patch (Rhizoctonia solani); conditions: in vivo; cited from earlier work
[2] = 525 ppm, treated at 0.5 leaf cycles, 5 days after treatment
[3] = 525 ppm, treated on day of planting, 20 days after treatment
[4] = 142 ppm, treated at 0.5 leaf cycles, 5 days after treatment
[5] = 142 ppm, treated on day of planting, 20 days after treatment
[6] = 283 ppm, treated at 0.5 leaf cycles, 5 days after treatment
[7] = 283 ppm, treated on day of planting, 20 days after treatment

Cc1nc(C(F)(F)F)c(C(=O)Nc2c(Br)cc(OC(F)(F)F)cc2Br)s1 [Thifluzamide]
Above-ground portion (mm) (Agrostis stolonifera; [2]): 16.9 mm
Roots (mm) (Agrostis stolonifera; [2]): 2.0 mm
Roots/above-ground portion % (Agrostis stolonifera; [2]): 12.0%
Above-ground portion (mm) (Agrostis stolonifera; [3]): 15.3 mm
Roots (mm) (Agrostis stolonifera; [3]): 1.4 mm
Roots/above-ground portion % (Agrostis stolonifera; [3]): 9.1%

Cc1nn(C)c(F)c1C(=O)Nc1ccccc1C(C)CC(C)C (stereo not shown) [Penflufen, N-[2-(1,3-dimethylbutyl)phenyl]-5-fluoro-1,3-dimethyl-1H-pyrazol-4-carboxamide]
Amount of roots compared to the untreated area (Zoysia Matrella; both the interstitial section and the sod section): increase in the amount of roots
Ratio of the root weight to the total weight of the roots, runners, and erect stems, treated vs untreated area (Zoysia Matrella; in vivo): higher in the treated area than in the untreated area
Amount of roots compared to the untreated area (Zoysia Matrella; interstitial section): especially marked increase
Roots weight (Zoysia Matrella; interstitial section): 1.13 g
Erect stem weight (Zoysia Matrella; interstitial section): 4.57 g
Erect stems/runners (Zoysia Matrella; interstitial section): 124%
Roots weight vs. untreated (Zoysia Matrella; interstitial section): 127%
Roots/(roots + runners + erect stems) (Zoysia Matrella; interstitial section): 12.02%
Roots/runners (Zoysia Matrella; interstitial section): 31%
Runner weight (Zoysia Matrella; interstitial section): 3.70 g
Roots weight (Zoysia Matrella; sod section): 1.57 g
Erect stem weight (Zoysia Matrella; sod section): 11.52 g
Erect stems/runners (Zoysia Matrella; sod section): 130%
Roots weight vs. untreated (Zoysia Matrella; sod section): 103%
Roots/(roots + runners + erect stems) (Zoysia Matrella; sod section): 7.16%
Roots/runners (Zoysia Matrella; sod section): 18%
Runner weight (Zoysia Matrella; sod section): 8.84 g
Above-ground portion (mm) (Agrostis stolonifera; [4]): 18.8 mm
Roots (mm) (Agrostis stolonifera; [4]): 3.9 mm
Roots/above-ground portion % (Agrostis stolonifera; [4]): 20.6%
Above-ground portion (mm) (Agrostis stolonifera; [5]): 15.9 mm
Roots (mm) (Agrostis stolonifera; [5]): 3.3 mm
Roots/above-ground portion % (Agrostis stolonifera; [5]): 20.8%
Above-ground portion (mm) (Agrostis stolonifera; [6]): 17.3 mm
Roots (mm) (Agrostis stolonifera; [6]): 3.5 mm
Roots/above-ground portion % (Agrostis stolonifera; [6]): 20.1%
Above-ground portion (mm) (Agrostis stolonifera; [7]): 17.3 mm
Roots (mm) (Agrostis stolonifera; [7]): 3.2 mm
Roots/above-ground portion % (Agrostis stolonifera; [7]): 18.8%
Root growth relative to above-ground portions (Agrostis stolonifera; registered weight (283 ppm) and half-weight, planting day and 0.5 leaf cycle treatment): root growth tended to be promoted over that of above-ground portions
Effectiveness against brown patch [1]: extremely effective
